One test addresses T1, rat FAAH (Rattus norvegicus, UniProt P97612).
T1 sequence (P97612 1-579): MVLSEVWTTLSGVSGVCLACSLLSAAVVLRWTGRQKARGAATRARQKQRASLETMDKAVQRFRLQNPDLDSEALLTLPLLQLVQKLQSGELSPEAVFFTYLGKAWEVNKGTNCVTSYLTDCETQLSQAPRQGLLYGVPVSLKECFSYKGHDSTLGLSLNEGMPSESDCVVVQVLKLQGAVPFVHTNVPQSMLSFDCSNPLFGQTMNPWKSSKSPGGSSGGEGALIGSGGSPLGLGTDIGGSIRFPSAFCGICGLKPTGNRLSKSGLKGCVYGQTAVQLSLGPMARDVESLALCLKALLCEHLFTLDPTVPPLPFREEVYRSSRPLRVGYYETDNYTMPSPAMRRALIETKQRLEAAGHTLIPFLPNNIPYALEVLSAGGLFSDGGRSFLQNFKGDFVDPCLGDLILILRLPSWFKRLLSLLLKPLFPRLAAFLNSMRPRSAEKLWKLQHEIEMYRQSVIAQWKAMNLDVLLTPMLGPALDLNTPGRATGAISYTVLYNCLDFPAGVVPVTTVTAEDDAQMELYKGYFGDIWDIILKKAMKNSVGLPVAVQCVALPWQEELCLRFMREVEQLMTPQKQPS
Kind of test: Assay Method 2: FAAH assay, 3H-anandamide hydrolysis in homogenate of SK-N-MC cells transfected with rat FAAH. Conditions: average of results, > = solubility limit or highest concentration tested. In kind it is biochemical. In outline: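 Homogenate of SK-N-MC cells stably transfected with rat FAAH cDNA (G418-selected clones) in pH 9 Tris/EDTA/glycerol/Triton buffer. Incubated with compound and 80 nM final [3H]-anandamide for 1 h at rt. Released [3H]-ethanolamine separated from substrate on activated charcoal filters and counted by scintillation.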

For test [1], the system named is mechanical (tactile) allodynia in the left hind paw. Kind of test: Assay Method 3: Rat Mild Thermal Injury Model (MTI), mechanical allodynia. Conditions: 0.5 h after administration. Type of test: in vivo, Sprague-Dawley rats. From the text:
Assay Method 3—Rat Mild Thermal Injury Model (MTI)
Pathogen-free, male albino Sprague-Dawley rats were purchased from Harlan Industries (San Diego, Calif.) and maintained on a 12-h light/dark cycle (lights on at 9:00 AM and off at 9:00 PM) in a climate-controlled room. Food and water were available ad libitum up to the time of the testing.
Under isoflurane/oxygen anesthesia, a first-degree burn injury (erythema without blistering) was produced as follows: the plantar surface of the rat's left hind paw was placed on water-dampened 56° C. hotplate for 20 seconds and steady contact was maintained by applying an 84 g weight to the dorsum (after Nozaki-Taguchi & Yaksh, Neurosci. Lett. 1998, 254, 25-28).
Mild thermal injury results in mechanical allodynia in the left hind paw. Mechanical (tactile) allodynia was assessed by determining the median threshold at which the affected paw was withdrawn from graded stimuli (von Frey filaments ranging from 0.41 to 15.8 g) applied perpendicularly with sufficient force to bend slightly and held for 2-3 seconds against the proximal half of the third and fourth toe surfaces through wire-mesh observation cages. Paw flinching during or immediately following the removal of the stimulus was considered a positive response. A paw withdrawal threshold (PWT) was determined by sequentially increasing and decreasing the stimulus strength and analyzing withdrawal data using an adaptation of the Dixon up-down method, as described (Chaplan et al., J. Neurosci. 1994, 53, 55-63). Rats were included in the study only if their baseline PWT was 3.1623 g or lower (4.5 logarithmically).
Rats were tested for pre-injury thresholds prior to mild thermal injury and again for baseline thresholds after development of mechanical allodynia. Immediately after baseline measurement, test compound or vehicle was administered orally and the measurement was repeated at 0.5 h after administration. The tactile thresholds (log value) were converted to percent of a maximum possible effect ( %MPE): % MPE=[Threshold(t)−Threshold(baseline)]*100/[Threshold(pre)−Threshold(baseline)], where t=post-treatment time. Data were expressed as mean±standard error of the mean (S.E.M.). Statistical analysis was performed using two-way ANOVA with repeated measures with a significance level of p<0.05.
Results for compounds tested in this assay are presented in Table 2, as an average of results obtained. Compounds were tested in free base, hydrochloride salt, and/or trifluoroacetic acid salt forms.

The subject of test [2] is thermal nociception. The conditions noted are these: rats; cited from earlier work.
Test [3] has as its target T2, FAAH (Homo sapiens, UniProt O00519).
T2 sequence (O00519 1-579): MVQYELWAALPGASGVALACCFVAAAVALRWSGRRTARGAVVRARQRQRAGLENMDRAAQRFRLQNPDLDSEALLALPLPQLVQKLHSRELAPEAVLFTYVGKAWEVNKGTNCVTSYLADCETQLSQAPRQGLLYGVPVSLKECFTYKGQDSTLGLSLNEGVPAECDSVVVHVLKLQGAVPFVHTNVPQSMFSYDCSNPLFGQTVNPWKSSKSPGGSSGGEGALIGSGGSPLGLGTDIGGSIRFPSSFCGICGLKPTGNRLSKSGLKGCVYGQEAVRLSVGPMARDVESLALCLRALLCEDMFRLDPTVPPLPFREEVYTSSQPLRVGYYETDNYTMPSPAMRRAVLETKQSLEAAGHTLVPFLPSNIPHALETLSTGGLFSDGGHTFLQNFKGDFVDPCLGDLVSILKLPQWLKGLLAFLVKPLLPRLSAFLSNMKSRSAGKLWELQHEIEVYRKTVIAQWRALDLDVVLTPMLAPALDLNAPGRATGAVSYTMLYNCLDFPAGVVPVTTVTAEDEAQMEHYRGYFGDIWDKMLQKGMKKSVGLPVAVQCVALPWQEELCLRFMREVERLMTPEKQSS
The conditions noted are these: cited from earlier work.

Test [4] deals with thermal nociception. The conditions noted are these: rats; cited from earlier work. The source holds these as a separate data set.
The next test relates to spasticity. Conditions: model of multiple sclerosis; cited from earlier work.
The next test has as its system neuropathic pain. The conditions noted are these: rats; cited from earlier work.
In test [5] the test system is acute thermal nociception. The conditions noted are these: rats; cited from earlier work.
In another test the test system is pain. The conditions noted are these: rat; cited from earlier work.
The subject of a further test is anxiety. The conditions noted are these: rats; cited from earlier work.
Test [6] concerns the target T2, FAAH. Kind of test: Assay Method 1: FAAH assay, 3H-anandamide hydrolysis in homogenate of T84 cells or SK-N-MC cells transfected with human FAAH. Type of test: biochemical. Conditions: average of results, > = solubility limit or highest concentration tested. The gist of the method: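 Homogenates of T84 cells or of SK-N-MC cells stably transfected with human FAAH (G418-selected) were prepared in pH 9 Tris/EDTA/glycerol/Triton buffer. They were incubated with compound and 80 nM final ^3H-anandamide for 1 h at rt. Released ^3H-ethanolamine was separated on activated charcoal and counted by scintillation.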

Counter-ions that a name gives are not always drawn.

Usually IC50 stands for the concentration that inhibits the measured activity by half. Read a high IC50 as lower potency.

Take `O=C(Nc1cnccn1)N1CCN(Cc2cccc(Oc3ccc(Cl)cc3)c2)CC1` [Example 58, 4-[3-(4-Chloro-phenoxy)-benzyl]-piperazine-1-carboxylic acid pyrazin-2-ylamide trifluoroacetic acid salt]: the IC50 on rat FAAH turned out to be 9 nM. For the same compound, the “% MPE” value in [1] (20 mg/Kg p.o., mean +/- S.E.M.) is 52 +/− 7%.

With `O=C(CCCCCCc1ccccc1)c1ncc(-c2ccccn2)o1` [OL-135], the “analgesic activity in tail emersion test” value with thermal nociception [2] is recorded as “analgesic activity”. For the same compound, on FAAH [3], the “inhibition of FAAH” value is recorded as “potent inhibitor”. In the test with thermal nociception [4], the “analgesic efficacy/activity in hot plate test” value is “analgesic activity”.

Regarding `CCCCCCCCCCCCCCCCS(=O)(=O)F` [AM374], the “spasticity in CREAE mice” value in the test with spasticity is recorded as “significantly reduce spasticity”.

Take `O=C(Nc1cccnn1)N1CCN(Cc2cccc(Oc3ccc(Cl)cc3)c2)CC1` [Example 246, 4-[3-(4-Chloro-phenoxy)-benzyl]-piperazine-1-carboxylic acid pyridazin-3-ylamide]: the IC50 at rat FAAH stood at 199 nM. Besides, the “% MPE” value in [1] (20 mg/Kg p.o., mean +/- S.E.M.) was 32 +/− 3%.

In the case of `Cc1nc(-c2ccccc2)c(-c2ccccc2)n1CCCCCCNC(=O)Oc1ccccc1F` [BMS-1], the “analgesic effect in Chung spinal nerve ligation model” value in the test with neuropathic pain is given as “analgesic effect”. In addition, in test [5], the “analgesic effect in Hargraves test” value is listed as “analgesic effect”.

In the case of `O=C(Nc1noc2ccccc12)N1CCN(Cc2cccc(Oc3ccc(Cl)cc3)c2)CC1` [Example 36, 4-[3-(4-Chloro-phenoxy)-benzyl]-piperazine-1-carboxylic acid benzo[d]isoxazol-3-ylamide trifluoroacetic acid salt], at rat FAAH, it took 10 nM to reach half-maximal inhibition (IC50). The “% MPE” value in test [1] (20 mg/Kg p.o., mean +/- S.E.M.) is reported as 38 +/− 13%.

For the compound `O=C(Nc1ccon1)N1CCN(Cc2cccc(Oc3ccc(Cl)cc3)c2)CC1` [Example 46, 4-[3-(4-Chloro-phenoxy)-benzyl]-piperazine-1-carboxylic acid isoxazol-3-ylamide trifluoroacetic acid salt], the “% MPE” value in test [1] (6 mg/Kg p.o.) worked out at 0%.

As to `NC(=O)c1cccc(-c2cccc(OC(=O)NC3CCCCC3)c2)c1` [URB-597], the “analgesic efficacy in formalin test” value in the test on pain was “analgesic efficacy”. In the test with anxiety, the “efficacy in zero plus maze model of anxiety” value is given as “efficacy”. Besides, the “analgesic efficacy/activity in hot plate test” value in the test with thermal nociception [4] was “analgesic efficacy”.

Take `O=C(Nc1cccc2nonc12)N1CCN(Cc2ccc3c(c2)OC(F)(F)O3)CC1` [Example 5, 4-(2,2-Difluoro-benzo[1,3]dioxol-5-ylmethyl)-piperazine-1-carboxylic acid benzo[1,2,5]oxadiazol-4-ylamide trifluoroacetic acid salt]: the results for the IC50 on rat FAAH and against FAAH [6] were 1200 nM and 170 nM, respectively.

For the compound `O=C(Nc1noc2ccccc12)N1CCN(Cc2cccc(C#Cc3ccccc3)c2)CC1` [Example 133, N-1,2-Benzisoxazol-3-yl-4-{[3-(phenylethynyl)phenyl]methyl}piperazine-1-carboxamide], the IC50 came out at 115 nM against rat FAAH and 24 nM against FAAH [6].

With `N#Cc1ccccc1COc1cccc(CN2CCN(C(=O)Nc3noc4ccccc34)CC2)c1` [Example 98, 4-[3-(2-Cyano-benzyloxy)-benzyl]-piperazine-1-carboxylic acid benzo[d]isoxazol-3-ylamide], the IC50 on rat FAAH is 300 nM; against FAAH [6], 22 nM.

For `Cc1cc(NC(=O)N2CCN(Cc3cccc(Oc4ccc(Cl)cc4)c3)CC2)n[nH]1` [Example 194, 4-[3-(4-Chlorophenoxy)benzyl]-N-(5-methyl-1H-pyrazol-3-yl)piperazine-1-carboxamide], the IC50 against rat FAAH came out at 4000 nM; against FAAH [6] it was 220 nM.

On to `O=C(Nc1nn[nH]n1)N1CCN(Cc2ccc(Cl)c(Cl)c2)CC1` [Example 182, 4-(3,4-Dichloro-benzyl)-piperazine-1-carboxylic acid (2H-tetrazol-5-yl)-amide], for which the IC50 against rat FAAH amounted to 340 nM; against FAAH [6], 1700 nM.

For `O=C(Nc1nnn[nH]1)N1CCC(Cc2ccc3ccccc3c2)CC1` [Example 13, 4-Naphthalen-2-ylmethyl-piperidine-1-carboxylic acid (1H-tetrazol-5-yl)-amide], the IC50 against rat FAAH is 87 nM; against FAAH [6], 5 nM.

The record behind these values is patent US20090062294A1, “HETEROARYL-SUBSTITUTED UREA MODULATORS OF FATTY ACID AMIDE HYDROLASE” (priority 2007, published 2009).
